Several values for one entry are separate records, joined by “and”; a condition that tells them apart may be missing. Equal entries are not always repeated. Square brackets hold non-standard residues; d marks the D form. Peptide text beside a SMILES is read from it. Sar = CNCC(=O)O
Molecular target: T1, Solute carrier family 15 member 2 (Homo sapiens, UniProt Q16348)
T1 sequence (Q16348 whole entry): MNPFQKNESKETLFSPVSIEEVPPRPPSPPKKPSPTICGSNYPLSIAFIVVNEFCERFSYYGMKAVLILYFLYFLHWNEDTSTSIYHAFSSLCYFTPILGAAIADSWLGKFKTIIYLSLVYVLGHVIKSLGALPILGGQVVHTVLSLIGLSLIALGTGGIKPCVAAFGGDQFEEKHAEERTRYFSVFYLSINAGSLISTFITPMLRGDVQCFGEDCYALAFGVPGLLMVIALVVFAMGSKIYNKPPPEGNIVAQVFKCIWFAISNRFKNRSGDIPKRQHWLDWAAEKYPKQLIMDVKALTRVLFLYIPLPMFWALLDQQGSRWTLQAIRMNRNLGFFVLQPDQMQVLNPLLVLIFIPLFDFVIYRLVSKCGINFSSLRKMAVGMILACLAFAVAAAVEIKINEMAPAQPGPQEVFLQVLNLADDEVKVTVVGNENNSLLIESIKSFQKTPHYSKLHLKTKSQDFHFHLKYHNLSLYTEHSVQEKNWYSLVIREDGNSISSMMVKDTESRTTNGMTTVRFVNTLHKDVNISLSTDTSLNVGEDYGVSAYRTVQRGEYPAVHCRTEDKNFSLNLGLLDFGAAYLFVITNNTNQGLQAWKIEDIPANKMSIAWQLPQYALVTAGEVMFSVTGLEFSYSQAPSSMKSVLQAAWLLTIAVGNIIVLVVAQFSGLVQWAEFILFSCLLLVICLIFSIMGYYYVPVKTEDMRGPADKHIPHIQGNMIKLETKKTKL
Test: Substrate uptake by the Peptide Transporter 2 (PEPT2, SLC15A2) as assessed by the fluorescent FLIPR membrane potential dye in HEK-293 JumpIN-SLC15A2 cells (PubChem AID: 1794819)
Assay type: functional, cell-based, HEK293

EC50 | SMILES
28 µM | NCCC(=O)N[C@@H](Cc1cnc[nH]1)C(=O)O [CARNOSINE]
123 µM and 39 µM | CN(CC(=O)O)C(=O)CN [GLYCYLSARCOSINE] (H-Gly-[Sar]-OH)

— ChEMBL document CHEMBL5209584, “Membrane potential based assay for SLC15A2 using HEK-293 SLC15A2 OE cells” (2022)
